US11235020B2, “Methods and compositions for inhibiting glyoxalase 1 (GLO1)” (priority 2013, dated 2022)
Read-outs that look alike come from different tables or passages of the source.

Key:
[1] = HPLC measurement of MG concentration in whole brain after i.p. MG; format: in vivo, mouse; conditions: for concentration at 10 min: intraperitoneal, read-out: Estimated MG concentration; for concentration at 10 min / MG concentration (nmol/g tissue): brain; for MG concentration (nmol/g tissue): 10 min post-injection
Description: MG concentration was measured by HPLC as previously described with modifications (Dhar 2009). Tissue was homogenized in 50 mM sodium phosphate buffer (pH 6.6) and 0.8N perchloric acid. It was then incubated on ice for 10 minutes and centrifuged. The supernatant was filtered, and MG was derivatized with 10 mM o-phenylenediamine to form 2-methylquinoxaline (2-MQ). 5-methylquinoxaline (5-MQ, 15 μM) was spiked into each sample as an internal standard. 2-MQ was quantified using an HP 1100 HPLC system (Agilent) with a Nova-Pak C18 column (Waters Corporation). Column effluent was monitored at 315 nm. 2-MQ concentration was determined by comparison to 2-MQ standards of known mass. Quantification of 2-MQ was corrected for losses by comparison with 5-MQ. MG concentration was calculated as 2-MQ/tissue weight. Treatment: Unless otherwise noted, crude MG was used for all behavioral experiments. MG was obtained from Sigma-Aldrich, filter-sterilized (0.22 μm filter, Millipore), diluted in vehicle (0.9% NaCl), and adjusted to pH 7.4. Mice were injected i.p. with 10 ml/kg MG or vehicle. HPLC: Ten minutes post-injection, mice were sacrificed, and brains were rapidly dissected and flash-frozen on dry ice. MG concentration was measured as described above.

mice = test: Hypothermia (rectal temperature); format: in vivo, mouse; conditions: 300 mg/kg i.p., B6 mice
Description: Hypothermia: Thirty minutes post-injection, rectal temperature was measured with a digital thermometer.

[2] = test system: GABAA receptors in cerebellar granule neurons; test: Whole-cell patch clamp in cerebellar granule neurons (CGN); format: cell-based, rat
Description: (§1) Reagents: All reagents were obtained from Sigma-Aldrich.
Culture of rat CGN: CGN were cultured from mixed-sex Sprague-Dawley rats. Tissue was dissected from 6- to 8-day-old rats. Cells were suspended in minimal essential medium supplemented with 10% fetal calf serum, 26 mM glucose, 19 mM KCl, 2 mM 1-glutamine, and penicillin/streptomycin (50 IU/ml and 50 μg/ml). Cells were seeded on poly-1-lysine-coated coverslips and incubated in a humidified atmosphere containing 5% CO2 at 37° C. After 48 hours, the culture medium was replaced with minimal essential medium supplemented with 10% horse serum, 26 mM glucose, 19 mM KCl, 2 mM 1-glutamine, penicillin/streptomycin (50 IU/ml and 50 μg/ml), and 80 μM 1-fluorodeoxyuridine. Culture medium was exchanged every three days. All recordings were made from cells between days 6 to 9 in culture.
(§2) Filter and sampling frequencies were 5 and 25 kHz, respectively, for voltage-clamp experiments and 1 and 10 kHz, respectively, for current-clamp recording. Experiments were performed at 32° C. using a feedback-controlled heated perfusion system (Warner Instruments). Vm, ligand-gated currents, and potassium channel currents were studied in a bath solution containing 1 mM CaCl2, 1 mM MgCl2, 4 mM KCl, 140 mM NaCl, 5 mM glucose, and 10 mM HEPES (pH 7.4). […] Electrodes were coated with Sigmacote (Sigma) prior to use.
(§3) Ligand-gated currents: Ligand-gated currents were studied in voltage-clamp mode by application of reagents to cells held at −50 mV.

[3] = test system: GABAA receptors in hippocampal neurons; test: Whole-cell patch clamp in hippocampal neurons (HN); format: cell-based, rat
Description: as §1
Neurons were maintained in neurobasal medium with B27 supplement and glutamax in a humidified atmosphere with 5% CO2 at 37° C.
as §2, §3

[4] = test system: GABAA receptors in macropatches excised from CGN; test: Macropatch recording from CGN; format: cell-based, rat
Description: Macropatch recording: Macropatch recording was performed with 1.5-2 MΩ electrodes filled with bath solution. The inside of excised patches was perfused with electrode solution containing the indicated reagents. SR was added to the electrode where indicated.

glycine receptors = test: Glycinergic currents in CGN; format: cell-based, rat; conditions: 10 μM MG
Description: Ligand-gated currents: Ligand-gated currents were studied in voltage-clamp mode by application of reagents to cells held at −50 mV. GABAergic and glycinergic currents were activated by application of GABA and glycine and antagonized by application of SR and strychnine, respectively (Kaneda 1995). Glutamatergic currents were activated by 1-glutamate and antagonized by CNQX and AP-5 (Wyllie 1994).

[5] = test system: depression-like behavior in mice; test: Tail suspension test (TST); format: in vivo, mouse; conditions: MG 50 mg/kg i.p., acute, 10 min before test, B6 mice
Description: Mice were suspended by their tails using adhesive tape attached to a bar elevated approximately 46 cm above a table. The apparatus was illuminated to approximately 1,000 lux. Mice were tested individually, and time spent immobile was scored manually for six minutes. For MG studies, mice were treated with vehicle (0.9% saline) or crude MG (Sigma-Aldrich, 50 mg/kg) by i.p. injection ten minutes before the test. Behavior was scored for five minutes.

[6] = test system: picrotoxin-induced seizures; test: Picrotoxin-induced seizures assessed by EEG; format: in vivo, mouse; conditions: MG 200 mg/kg pre-treatment, picrotoxin 7 mg/kg
Description: FIGS. 37A-37D: Exogenous MG attenuates picrotoxin-induced seizures as assessed by EEG. B6 mice were pre-treated with vehicle or MG (200 mg/kg) prior to seizure induction with picrotoxin (7 mg/kg). […] P=0.036 by Mann-Whitney U test. […] P=0.028 by Mann-Whitney U test. […] P=0.036 by Mann-Whitney U test. […] P=0.014 by Mann-Whitney U test. […] P=0.028 by Mann-Whitney U test. FIG. 37D, Representative EEG recordings of a mouse during baseline period (prior to any injections), after acute saline and picrotoxin (7 mg/kg) injections, or after acute MG (200 mg/kg) and picrotoxin (7 mg/kg) injections. […] Seizures are associated with high muscle activity, as indicated by the electromyography (EMG) trace. […] EEG traces correspond to four differential recordings from each of four subdural electrodes (EEG1 and EEG2 (right cortical hemisphere), EEG3 and EEG4 (left cortical hemisphere)). EMG activity was recorded using two fine wires placed into the neck muscle. Calibration mark: 500 μV/mm and 1 second. Data are mean±SEM. n=4 vehicle, 5 MG (200 mg/kg). *P<0.05 versus vehicle-treated group as determined by Mann-Whitney U tests.
In order to validate these behavioral data, the inventors assessed seizure activity by EEG analysis of mice treated with 7 mg/kg picrotoxin. […] Thus, MG attenuates seizures induced by GABAA receptor blockade at both the behavioral and EEG level.

## CC(=O)C=O [MG, methylglyoxal]
[1]; B6, mouse, MG 50 mg/kg i.p. (anxiolytic dose)
  concentration at 10 min: 5.94 µM
[1]; B6, mouse, MG 100 mg/kg i.p.
  concentration at 10 min: 6.54 µM
[1]; B6, mouse, MG 300 mg/kg i.p.
  concentration at 10 min: 8.26 µM
[1]; MG 50 mg/kg
  expected increase of the concentration of MG in the brain: approximately 16%
[1]; MG 50 mg/kg i.p.
  MG concentration (nmol/g tissue): 5.66 ± 0.36 nmol/g tissue
[1]; MG 100 mg/kg i.p.
  MG concentration (nmol/g tissue): 6.23 ± 0.26 nmol/g tissue
[1]; MG 200 mg/kg
  expected increase of the concentration of MG in the brain: ~43%
[1]; MG 300 mg/kg i.p.
  MG concentration (nmol/g tissue): 7.87 ± 0.56 nmol/g tissue
[1]; mouse, MG 50 mg/kg i.p. (anxiolytic dose)
  concentration at 10 min: ~6 µM
mice
  hypothermia: hypothermia
[2]; read-out: EC50 of evoked inward currents in CGN, whole-cell voltage clamp
  EC50: 12 ± 0.7 µM
[2]; whole-cell current clamp, read-out: EC50 of depolarization of CGN
  EC50: 10.5 ± 0.5 µM
[3]
  peak response versus GABA in hippocampal neurons: approximately one-third of those evoked by GABA
[4]; 10 μM MG
  latency of inward current after application to the intracellular face: approximately 40 seconds
[4]; 10 μM, SR 10 μM at the extracellular face (pipette)
  current on application to the intracellular face of macropatches: elicited an inward current
Glycine receptors
  activation of glycine receptors: did not activate
[5]
  duration of immobility in the TST: did not affect the duration of immobility
[6]
  duration of EEG-confirmed seizures: reduced seizure duration
  latency to first EEG-confirmed seizure: delayed seizure onset
  number of EEG-confirmed seizures: reduced the number of seizures
